Measured values taken from US12704506B2, “Microbial analysis without cell purification” (First Light Diagnostics, Inc., priority 2018, dated 2026).
Where two headings read alike, the source gives them in different places.

Experiments:
[1] = system: K. pneumonaie strain in clinical urine sample BIUR0084; test: automated MultiPath AST cartridge on clinical urine, Example 8; assay type: cell-based, K. pneumoniae; conditions: for sensitive/resistant call by MulitPath: clinical urine BIUR0084, 4 h growth, fold growth value of 2; for growth call at all antibiotic concentrations (MulitPath assay): clinical urine BIUR0084, fold growth value of 2, 4 h
P. mirabilis = system: P. mirabilis; set-up: key: previously determined antibiotic resistance (shown with “X”); conditions: cited from earlier work
P. aeruginosa = system: P. aeruginosa; set-up: key: previously determined antibiotic resistance (shown with “X”); conditions: cited from earlier work
E. coli = system: E. coli; set-up: key: previously determined antibiotic resistance (shown with “X”); conditions: cited from earlier work
K. pneumoniae = system: K. pneumoniae; set-up: key: previously determined antibiotic resistance (shown with “X”); conditions: cited from earlier work
K. oxytoca = system: K. oxytoca; set-up: key: previously determined antibiotic resistance (shown with “X”); conditions: cited from earlier work
E. coli BAA-2469 [2] = system: E. coli BAA-2469; set-up: unit not given beside the values; conditions: E. coli BAA-2469, regardless of the amount of S. aureus ATCC 25923 cells
E. coli BAA-2469 [3] = system: E. coli BAA-2469; set-up: unit not given beside the values
Text: Comparison Method: Results for the novel assay method described here were compared to broth microdilutions (BMD) performed according the […] 2018.

| Molecule | sensitive/resistant call by MulitPath [1] | growth call at all antibiotic concentrations (MulitPath assay) [1] | previously determined antibiotic resistance (P. mirabilis; P. mirabilis ATCC7002) | previously determined antibiotic resistance (P. mirabilis; P. mirabilis CDC0029) | previously determined antibiotic resistance (P. mirabilis; P. mirabilis CDC0059) | previously determined antibiotic resistance (P. mirabilis; P. mirabilis CDC0155) | previously determined antibiotic resistance (P. mirabilis; P. mirabilis CDC0156) | previously determined antibiotic resistance (P. mirabilis; P. mirabilis CDC0159) | previously determined antibiotic resistance (P. aeruginosa; P. aeruginosa ATCC27853) | previously determined antibiotic resistance (P. aeruginosa; P. aeruginosa CDC0105) | previously determined antibiotic resistance (P. aeruginosa; P. aeruginosa CDC0111) | previously determined antibiotic resistance (P. aeruginosa; P. aeruginosa CDC0242) | previously determined antibiotic resistance (E. coli; E. coli ATCC25922) | previously determined antibiotic resistance (K. pneumoniae; K. pneumoniae ATCC13883) | previously determined antibiotic resistance (K. pneumoniae; K. pneumoniae CDC0010) | previously determined antibiotic resistance (K. pneumoniae; K. pneumoniae CDC0016) | previously determined antibiotic resistance (K. pneumoniae; K. pneumoniae CDC0126) | previously determined antibiotic resistance (K. oxytoca; K. oxytoca CDC0028) | previously determined antibiotic resistance (K. oxytoca; K. oxytoca CDC0071) | previously determined antibiotic resistance (K. oxytoca; K. oxytoca CDC0147) | also measured |
| --- | --- | --- | --- | --- | --- | --- | --- | --- | --- | --- | --- | --- | --- | --- | --- | --- | --- | --- | --- | --- | --- |
| Cc1nnc(SCC2=C(C(=O)O)N3C(=O)[C@@H](NC(=O)Cn4cnnn4)[C@H]3SC2)s1 [Cefazolin] | resistant | growth |  |  |  |  |  |  |  |  |  |  |  |  |  |  |  |  |  |  |  |
| CC(C)(O/N=C(\C(=O)N[C@@H]1C(=O)N2C(C(=O)[O-])=C(C[n+]3ccccc3)CS[C@H]12)c1csc(N)n1)C(=O)O [Ceftazidime] |  |  | X | X | X | X | X | X | X | X | X | X | X | X | X | X | X | X | X | X | previously determined antibiotic resistance (P. aeruginosa; P. aeruginosa CDC0251): X; previously determined antibiotic resistance (P. aeruginosa; P. aeruginosa CDC0253): X; previously determined antibiotic resistance (E. coli; E. coli CDC0020): X; previously determined antibiotic resistance (E. coli; E. coli CDC0067): X; previously determined antibiotic resistance (E. coli; E. coli CDC0084): X; previously determined antibiotic resistance (E. coli; E. coli CDC0086): X; previously determined antibiotic resistance (E. coli; E. coli CDC0350): X; previously determined antibiotic resistance (K. pneumoniae; K. pneumoniae CDC0041): X; previously determined antibiotic resistance (K. pneumoniae; K. pneumoniae CDC0107): X; previously determined antibiotic resistance (K. pneumoniae; K. pneumoniae CDC0160): X |
| O=C(O)c1cn(C2CC2)c2cc(N3CCNCC3)c(F)cc2c1=O [Ciprofloxacin] |  |  | X | X | X | X | X | X | X |  |  |  | X | X |  | X | X | X | X | X | previously determined antibiotic resistance (P. aeruginosa; P. aeruginosa CDC0251): X; previously determined antibiotic resistance (P. aeruginosa; P. aeruginosa CDC0253): X; previously determined antibiotic resistance (P. aeruginosa; P. aeruginosa CDC0259): X; previously determined antibiotic resistance (P. aeruginosa; P. aeruginosa CDC0261): X; previously determined antibiotic resistance (P. aeruginosa; P. aeruginosa CDC0262): X; previously determined antibiotic resistance (E. coli; E. coli BAA-2452): X; previously determined antibiotic resistance (E. coli; E. coli BAA-2469): X; previously determined antibiotic resistance (E. coli; E. coli BAA-2471): X; previously determined antibiotic resistance (E. coli; E. coli CDC0017): X; previously determined antibiotic resistance (E. coli; E. coli CDC0019): X; previously determined antibiotic resistance (K. pneumoniae; K. pneumoniae CDC0034): X; previously determined antibiotic resistance (K. pneumoniae; K. pneumoniae CDC0076): X; previously determined antibiotic resistance (K. pneumoniae; K. pneumoniae CDC0117): X |
| C[C@@H](O)[C@H]1C(=O)N2C(C(=O)O)=C(S[C@@H]3CN[C@H](C(=O)N(C)C)C3)[C@H](C)[C@H]12 [Meropenem] |  |  | X | X | X | X | X | X |  | X | X | X | X | X | X | X |  | X | X | X | previously determined antibiotic resistance (P. aeruginosa; P. aeruginosa CDC0232): X; previously determined antibiotic resistance (P. aeruginosa; P. aeruginosa CDC0247): X; previously determined antibiotic resistance (E. coli; E. coli CDC0001): X; previously determined antibiotic resistance (E. coli; E. coli CDC0006): X; previously determined antibiotic resistance (E. coli; E. coli CDC0020): X; previously determined antibiotic resistance (E. coli; E. coli CDC0085): X; previously determined antibiotic resistance (E. coli; E. coli CDC0114): X; previously determined antibiotic resistance (K. pneumoniae; K. pneumoniae CDC0034): X; previously determined antibiotic resistance (K. pneumoniae; K. pneumoniae CDC0043): X; previously determined antibiotic resistance (K. pneumoniae; K. pneumoniae CDC0076): X; previously determined antibiotic resistance (K. pneumoniae; K. pneumoniae CDC0080): X |
| O=C1CN(/N=C/c2ccc([N+](=O)[O-])o2)C(=O)N1 [Nitrofurantoin] |  |  |  |  |  |  |  |  |  |  |  |  |  |  |  |  |  |  |  |  | MIC, novel 4-hour AST assay (MultiPath) (E. coli BAA-2469 [2]): 8; MIC, CLSI-like broth microdilution (E. coli BAA-2469 [3]; E. coli BAA-2469, in the absence of S. aureus): 8; MIC, CLSI-like broth microdilution (E. coli BAA-2469 [3]; E. coli BAA-2469, with a 100-fold excess of S. aureus ATCC 25923): 32 |
| Trimethoprim/Sulfamethoxazole | resistant | growth | X | X | X | X | X | X |  |  |  |  | X | X | X | X | X | X | X | X | previously determined antibiotic resistance (E. coli; E. coli BAA-2469): X; previously determined antibiotic resistance (E. coli; E. coli BAA-2471): X; previously determined antibiotic resistance (E. coli; E. coli CDC0017): X; previously determined antibiotic resistance (E. coli; E. coli CDC0019): X; previously determined antibiotic resistance (E. coli; E. coli CDC0084): X; previously determined antibiotic resistance (K. pneumoniae; K. pneumoniae CDC0107): X; previously determined antibiotic resistance (K. pneumoniae; K. pneumoniae CDC0117): X |
